Here are results for 3 compounds from paper PMC10950498, “Ligands of HMG-like dorsal switch protein 1 of Spodoptera exigua leads to mortality in diamondback moth, Plutellaxylostella” (Heliyon, 2024).

This experiment deals with T1, HMG-like dorsal switch protein 1 (rSe-DSP1).
T1 construct: recombinant DSP1 protein (rSe-DSP1)
The experiment is described as follows: thermal shift assay with fitted Kd. The format is binding, Spodoptera exigua.
As a reminder, the Kd is the concentration at which binding is half-saturated. With `N#Cc1ccccc1C(=O)O` [CBA, o-Cyanobenzoic acid], the dissociation constant Kd is 246 µM. The result for `CCOc1cc(O)ccc1OC` [EMP, 3-Ethoxy-4-Methoxyphenol] reads 148 µM. With `O=C1NC(=O)c2ccccc21` [PM, Phthalimide], the dissociation constant Kd is 197 µM.
